Laboratory results: ChEMBL document CHEMBL5584231, “Rational design of a new short anticancer peptide with good potential for cancer treatment” (Eur J Med Chem, 2024)
Calls of active or inactive are those of the source. The calls are words filed in the database; no cut-off is given here. Non-standard residues stand in square brackets, D forms with d. Residues, ends and D or L forms follow the SMILES beside them. Dip = N[C@H](C(=O)O)C(c1ccccc1)c1ccccc1; Nle(6-COOH) = N[C@@H](CCCCC(=O)O)C(=O)O; Asu = N[C@@H](CCCCCC(=O)O)C(=O)O

How the values were obtained:
HeLa = test: Cytotoxicity against human HeLa cells assessed as inhibition of cell growth incubated for 1 hr by MTT assay; type: functional, cell-based
MCF7 = test: Cytotoxicity against human MCF7 cells assessed as inhibition of cell growth incubated for 1 hr by MTT assay; type: functional, cell-based; settings: MCF7, 1 h
[1] = Cytotoxicity against RG cells (unknown origin) assessed as inhibition of cell growth incubated for 1 hr by MTT assay; type: functional, cell-based
A549 = test: Cytotoxicity against human A549 cells assessed as inhibition of cell growth incubated for 1 hr by MTT assay; type: functional, cell-based; settings: A549, 1 h
[2] = Cytotoxicity against HK-2 cells assessed as inhibition of cell growth incubated for 1 hr by MTT assay; type: toxicity, cell-based; settings: human
[3] = Therapeutic index, ratio of HC10 for mouse RBC to IC50 for cytotoxicity against human HeLa cells; type: toxicity, cell-based; settings: mouse RBC and HeLa cells, read-out: TI
[4] = Therapeutic index, ratio of HC10 for mouse RBC to IC50 for cytotoxicity against human MCF7 cells; type: toxicity, cell-based; settings: mouse RBC and MCF7 cells, read-out: TI
[5] = Therapeutic index, ratio of HC10 for mouse RBC to IC50 for cytotoxicity against RG cells (unknown origin); type: toxicity, cell-based; settings: mouse RBC and RG cells, read-out: TI
[6] = Therapeutic index, ratio of HC10 for mouse RBC to IC50 for cytotoxicity against human A549 cells; type: toxicity, cell-based; settings: mouse RBC and A549 cells, read-out: TI
[7] = Hemolytic activity in mouse RBC at 12.5 uM incubated for 1 hr by absorbance based assay relative to control; type: toxicity, cell-based, Erythrocyte; settings: red blood cells (erythrocytes), read-out: Activity
Cell membrane [8] = test: Disruption of cell membrane in human MCF7 cells assessed as LDH release at 40 uM incubated for 1 hr by fluorescence based microplate reader analysis relative to control; type: cell membranes
Cell membrane [9] = test: Induction of morphological changes in cell membrane of human MCF7 cells assessed as membrane damage at 1 times IC50 incubated for 1 hr by SEM analysis; type: cell membranes
Cell membrane [10] = test: Induction of morphological changes in cell membrane of human MCF7 cells assessed as cell depression at 1 times IC50 incubated for 1 hr by SEM analysis; type: cell membranes
Cell membrane [11] = test: Disruption of cell membrane integrity in human MCF7 cells assessed as increase in PI fluorescence at 1 times IC50 by laser confocal scanning microscopic analysis; settings: time 0-120 min, TDE = time-dependent effect
Cell membrane [12] = test: Disruption of cell membrane integrity in human MCF7 cells assessed as increase in PI fluorescence measured after 1 hr by laser confocal scanning microscopic analysis; type: cell membranes
Cell membrane [13] = test: Induction of cell membrane damage in human MCF7 cells assessed as protein leakage at 1 to 2 times IC50 measured after 0.5 to 6 hrs by UV based analysis; type: cell membranes; settings: time 0.5-6 hrs
Cell membrane [14] = test: Induction of cell membrane damage in human MCF7 cells assessed as nucleic acid leakage at 1 to 2 times IC50 measured after 0.5 to 6 hrs by UV based analysis; type: cell membranes; settings: time 0.5-6 hrs

| Structure (SMILES) | IC50 (HeLa) [µM] | IC50 (MCF7) [µM] | IC50 [1] [µM] | IC50 (A549) [µM] | IC50 at 1 h [2] [µM] | selectivity ratio [3] | selectivity ratio [4] | selectivity ratio [5] | selectivity ratio [6] | hemolysis at 1 h, 12.5 µM [7] [%] | Activity (Cell membrane [8]) [%] | Activity (Cell membrane [9]) | Activity (Cell membrane [10]) | Activity (Cell membrane [11]) | Activity (Cell membrane [12]) | Activity (Cell membrane [13]) | Activity (Cell membrane [14]) |
| --- | --- | --- | --- | --- | --- | --- | --- | --- | --- | --- | --- | --- | --- | --- | --- | --- | --- |
| CC(C)C[C@H](NC(=O)[C@H](CCCCN)NC(=O)[C@H](CCCCN)NC(=O)[C@H](CC(C)C)NC(=O)[C@H](CC(C)C)NC(=O)[C@H](CCCCN)NC(=O)[C@H](CCCCN)NC(=O)[C@H](CC(C)C)NC(=O)[C@H](CC(C)C)NC(=O)[C@H](CCCCN)NC(=O)[C@H](CCCCN)NC(=O)[C@H](CC(C)C)NC(=O)[C@@H](N)CC(C)C)C(=O)N[C@@H](CCCCCC(=O)O)C(N)=O (H-LLKKLLKKLLKKL[Asu]-NH2) | 5.23 | 8.55 | 12.8 | 5.97 | 15.3 | 15.4 | 9.43 | 6.3 | 13.5 | – | – | – | – | – | – | – | – |
| CC(C)C[C@H](NC(=O)[C@H](CCCCN)NC(=O)[C@H](CCCCN)NC(=O)[C@H](CC(C)C)NC(=O)[C@H](CC(C)C)NC(=O)[C@H](CCCCN)NC(=O)[C@H](CCCCN)NC(=O)[C@H](CC(C)C)NC(=O)[C@H](CC(C)C)NC(=O)[C@H](CCCCN)NC(=O)[C@H](CCCCN)NC(=O)[C@H](CC(C)C)NC(=O)[C@@H](N)CC(C)C)C(=O)N[C@@H](CCCCC(=O)O)C(N)=O (H-LLKKLLKKLLKKL[Nle(6-COOH)]-NH2) | 7.59 | 14 | 20.4 | 11.2 | 26.4 | 25.4 | 13.8 | 9.42 | 17.1 | – | – | – | – | – | – | – | – |
| CC[C@H](C)[C@H](NC(=O)CN)C(=O)NCC(=O)N[C@@H](C)C(=O)N[C@H](C(=O)N[C@@H](CC(C)C)C(=O)N[C@@H](CCCCN)C(=O)N[C@H](C(=O)N[C@@H](CC(C)C)C(=O)N[C@H](C(=O)N[C@H](C(=O)NCC(=O)N[C@@H](CC(C)C)C(=O)N1CCC[C@H]1C(=O)N[C@@H](C)C(=O)N[C@@H](CC(C)C)C(=O)N[C@H](C(=O)N[C@@H](CO)C(=O)N[C@@H](Cc1c[nH]c2ccccc12)C(=O)N[C@H](C(=O)N[C@@H](CCCCN)C(=O)N[C@@H](CCCNC(=N)N)C(=O)N[C@@H](CCCCN)C(=O)N[C@@H](CCCNC(=N)N)C(=O)N[C@@H](CCC(N)=O)C(=O)N[C@@H](CCC(N)=O)C(N)=O)[C@@H](C)CC)[C@@H](C)CC)[C@@H](C)O)[C@@H](C)O)C(C)C)C(C)C [MELITTIN] | 0.934 | 1.79 | – | 1.83 | 0.802 | 1.44 | 0.747 | 0.859 | 0.733 | > 85 | 86.8 | Active | Active | Tde | Dose-Dependent Effect | Active | Active |
| NCCCC[C@H](NC(=O)[C@@H](NC(=O)[C@H](Cc1c[nH]c2ccccc12)NC(=O)[C@H](CCCCN)NC(=O)[C@H](CCCCN)NC(=O)[C@H](Cc1c[nH]c2ccccc12)NC(=O)[C@H](Cc1c[nH]c2ccccc12)NC(=O)[C@H](CCCCN)NC(=O)[C@@H](N)CCCCN)C(c1ccccc1)c1ccccc1)C(N)=O [RUXOTEMITIDE] (H-KKWWKKW[Dip]K-NH2) | 14.7 | 63.5 | 43.2 | 64.1 | 78.4 | 10.6 | 2.45 | 3.6 | 2.43 | – | – | – | – | – | – | – | – |
